Reference: PubChem BioAssay AID504472 (NMMLSC, 2011)
The source made the active and inactive calls.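 How the source made its calls: active means compound moving the GFP-tagged Gln3 signal into the yeast nucleus, as rapamycin does; inactive means the rest.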

Tested on: S. cerevisiae Gln3-GFP nuclear translocation, microscopy
Experiment: Gln3-GFP nuclear translocation in yeast, SAR follow-up, yeast TOR pathway modulator project, S. cerevisiae, GFP fusion, microscopy (AID 504472)
Conditions: at 30 µM; hits give high values

| SMILES | nuclear translocation (1=yes) |
| --- | --- |
| CNc1nc(N)c([N+](=O)[O-])c(Nc2cccc(Cl)c2)n1 | 0 (inactive) |
| CNc1nc(N)c([N+](=O)[O-])c(Nc2ccccc2)n1 | 0 (inactive) |
| CO[C@H]1C[C@@H]2CC[C@@H](C)[C@@](O)(O2)C(=O)C(=O)N2CCCC[C@H]2C(=O)O[C@H]([C@H](C)C[C@@H]2CC[C@@H](O)[C@H](OC)C2)CC(=O)[C@H](C)/C=C(\C)[C@@H](O)[C@@H](OC)C(=O)[C@H](C)C[C@H](C)/C=C/C=C/C=C/1C | 1 |
| CNc1nc(N)c([N+](=O)[O-])c(Nc2cccc(F)c2)n1 | 0 (inactive) |
